Where two headings read alike, the source gives them in different places.
Tests used:
[1] = test system: human tumor xenograft models; conditions: cited from earlier work
PI3Kα = PI3Kα (Homo sapiens, UniProt P42336); test: PI3Kα fluorescence polarization assay; assay type: biochemical; conditions: 20 μM PIP2, 25 μM ATP
Method in brief: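 Kinase reaction in 20 mM HEPES pH 7.5, 2 mM MgCl2, 0.05% CHAPS with final 20 μM diC8-PIP2 and 25 μM ATP, 30-60 min at room temperature. Stopped with 10 nM TAMRA-labelled probe plus 2.5 uM GST-murine GRP; fluorescence polarization read after 90-110 minutes.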

human TOR (FLAG-TOR) = human TOR (FLAG-TOR) (Homo sapiens, UniProt P42345); test: mTOR enzyme assay (DELFIA format, purified enzyme); assay type: biochemical; conditions: 800 ng/ml FLAG-TOR, 100 μM ATP, 1.25 μM His6-S6K; read-out: mTOR Kinase IC50
[2] = test system: MDA468 breast tumor cells; test: In vitro cell growth assay (MTS), MDA468; assay type: cell-based, human; conditions: three days after drug treatment
Method in brief: (§1)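 Tumor cells plated ~3000/well; inhibitors in DMSO added one day later (final DMSO 0.25%). After three days of treatment, viable cell density read by MTS conversion, absorbance at 490 nm. Effect expressed relative to untreated control growth.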

[3] = test system: LNCap prostate tumor cells; test: In vitro cell growth assay (MTS), LNCap; assay type: cell-based, human; conditions: three days after drug treatment
Method in brief: as §1

PI3Kα, sequence (P42336 whole entry, species assumed): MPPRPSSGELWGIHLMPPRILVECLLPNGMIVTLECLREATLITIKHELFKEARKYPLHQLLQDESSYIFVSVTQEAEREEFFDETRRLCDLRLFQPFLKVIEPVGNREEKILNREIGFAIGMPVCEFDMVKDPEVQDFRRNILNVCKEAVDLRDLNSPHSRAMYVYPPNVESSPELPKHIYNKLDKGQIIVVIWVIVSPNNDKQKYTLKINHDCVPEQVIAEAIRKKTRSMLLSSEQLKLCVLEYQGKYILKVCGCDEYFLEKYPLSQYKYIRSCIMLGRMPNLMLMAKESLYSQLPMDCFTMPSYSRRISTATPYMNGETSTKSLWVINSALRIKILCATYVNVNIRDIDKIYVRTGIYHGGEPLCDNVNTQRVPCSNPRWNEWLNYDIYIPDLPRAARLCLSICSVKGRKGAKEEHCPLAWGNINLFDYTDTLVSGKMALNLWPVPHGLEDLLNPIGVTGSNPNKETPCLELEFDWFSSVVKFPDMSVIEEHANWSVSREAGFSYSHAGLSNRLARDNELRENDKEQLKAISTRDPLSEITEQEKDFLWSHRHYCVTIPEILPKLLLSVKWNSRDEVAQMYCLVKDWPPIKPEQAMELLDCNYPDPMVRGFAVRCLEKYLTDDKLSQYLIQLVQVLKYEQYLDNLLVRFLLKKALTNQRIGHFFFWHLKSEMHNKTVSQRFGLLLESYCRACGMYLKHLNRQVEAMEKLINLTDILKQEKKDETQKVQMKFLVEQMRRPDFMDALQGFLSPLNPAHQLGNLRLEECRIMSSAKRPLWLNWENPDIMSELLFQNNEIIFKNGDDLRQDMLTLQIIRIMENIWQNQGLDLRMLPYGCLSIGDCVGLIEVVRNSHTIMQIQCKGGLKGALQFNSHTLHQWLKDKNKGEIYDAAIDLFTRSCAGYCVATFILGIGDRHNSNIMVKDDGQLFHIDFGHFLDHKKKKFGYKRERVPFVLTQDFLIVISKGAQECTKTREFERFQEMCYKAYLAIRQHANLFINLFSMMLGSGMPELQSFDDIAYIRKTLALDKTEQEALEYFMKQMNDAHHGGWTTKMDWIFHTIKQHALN
PI3Kα, sequence (P27986 whole entry partner, species assumed): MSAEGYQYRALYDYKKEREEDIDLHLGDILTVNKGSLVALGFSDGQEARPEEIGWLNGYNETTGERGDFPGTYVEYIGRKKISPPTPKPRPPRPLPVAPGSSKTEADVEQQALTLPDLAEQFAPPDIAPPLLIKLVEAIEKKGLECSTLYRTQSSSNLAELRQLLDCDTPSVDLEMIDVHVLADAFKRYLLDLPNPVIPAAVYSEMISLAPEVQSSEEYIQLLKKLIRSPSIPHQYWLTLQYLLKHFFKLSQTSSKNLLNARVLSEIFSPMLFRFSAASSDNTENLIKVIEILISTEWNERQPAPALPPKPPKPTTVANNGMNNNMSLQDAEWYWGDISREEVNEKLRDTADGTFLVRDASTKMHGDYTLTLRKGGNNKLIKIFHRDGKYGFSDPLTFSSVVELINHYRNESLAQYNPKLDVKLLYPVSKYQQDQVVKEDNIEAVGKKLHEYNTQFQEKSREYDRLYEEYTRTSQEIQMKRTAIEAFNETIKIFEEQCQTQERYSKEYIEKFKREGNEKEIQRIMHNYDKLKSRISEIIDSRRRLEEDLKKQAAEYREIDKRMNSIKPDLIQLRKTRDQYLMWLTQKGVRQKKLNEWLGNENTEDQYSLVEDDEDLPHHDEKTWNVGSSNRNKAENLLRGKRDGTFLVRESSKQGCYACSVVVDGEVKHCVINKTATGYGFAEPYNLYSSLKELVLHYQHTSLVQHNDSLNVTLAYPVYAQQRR

melting point | IC50 (PI3Kα) [µM] | IC50 (human TOR (FLAG-TOR)) [µM] | IC50 ([2]; Homo sapiens, 72 h) [µM] | IC50 ([3]; Homo sapiens, LNCaP, 72 h) [µM] | IC50 [2] [µM] | IC50 [3] [µM] | SMILES | activity in human tumor xenograft models ([1]; I.P. dosing in mice, U87MG, PC3, MDA-MB-468, MDA-MB-435, HCT 116, SKOV3, IGROV-1) | activity in human tumor xenograft models ([1]; prostrate (PC-3) and glioblastoma (U-87))
262 to 265 °C | – | – | – | – | – | – | O=c1cc(Oc2cccc(OCc3ccccc3)c2)c2ccccc2[nH]1 [Example 57, 4-[3-(benzyloxy)phenoxy]quinolin-2(1H)-one] | – | –
242 to 243 °C | – | – | – | – | – | – | O=c1cc(Oc2cccnc2)c2ccccc2[nH]1 [Example 119, 4-(pyridin-3-yloxy)quinolin-2(1H)-one] | – | –
– | – | – | – | – | – | – | Oc1cccc(-c2nc(N3CCOCC3)c3oc4ncccc4c3n2)c1 [PI103, 3-(4-(4-morpholinyl)pyrido[3′,2′:4,5]furo[3,2-d]pyrimidin-2-yl)phenol] | demonstrated activity | –
218 to 221 °C | – | – | – | – | – | – | CN1CCN(c2cccc(Oc3cc(=O)[nH]c4ccccc34)c2)CC1 [Example 140, 4-[3-(4-methylpiperazin-1-yl)phenoxy]quinolin-2(1H)-one] | – | –
– | – | – | – | – | – | – | Cn1c(=O)n(-c2ccc(C(C)(C)C#N)cc2)c2c3cc(-c4cnc5ccccc5c4)ccc3ncc21 [NVP-BEZ-235, 2-methyl-2-(4-(3-methyl-2-oxo-8-(quinolin-3-yl)-2,3-dihydro-1H-imidazo[4,5-c]quinolin-1-yl)phenyl)propanenitrile] | – | demonstrated activity
187 to 193 °C (dec.) | – | – | – | – | – | – | CN(Cc1cccnc1)c1cccc(Oc2cc(=O)[nH]c3ccccc23)c1 [Example 161, 4-{3-[methyl(pyridin-3-ylmethyl)amino]phenoxy}quinolin-2(1H)-one] | – | –
– | > 10 | 0.23 | > 60 | > 60 | – | – | O=c1cc(Oc2cccc3ccccc23)c2ccccc2[nH]1 | – | –
– | > 10 | 0.14 | 23 | 12 | – | – | CN1CCN(CCNc2ccc(-c3cccc(Oc4cc(=O)[nH]c5ccccc45)c3)cc2)CC1 | – | –
– | 7.91 | 2 | > 60 | 8 | – | – | Cc1ccccc1Oc1cc(=O)[nH]c2ccccc12 | – | –
– | 10.4 | 0.49 | 35 | 13 | – | – | O=c1cc(Oc2cccc(-c3ccc(N4CCOCC4)cc3)c2)c2ccccc2[nH]1 | – | –
– | > 10 | 0.4 | 4.05 | 2.5 | – | – | CN1CCN(c2cc(-c3cccc(Oc4cc(=O)[nH]c5ccccc45)c3)ccn2)CC1 | – | –
– | 7.38 | 0.03 | 4.2 | 2.3 | – | – | N#C[BH2-][n+]1cccc(CNc2cccc(Oc3cc(=O)[nH]c4ccccc34)c2)c1 | – | –
– | 11 | 0.54 | > 60 | > 60 | – | – | COc1ccc(Oc2cc(=O)[nH]c3ccccc23)cc1 | – | –
– | 2.48 | 0.96 | 49 | > 60 | – | – | O=c1cc(Oc2ccc(Cl)cc2)c2ccccc2[nH]1 | – | –
– | > 10 | > 20 | > 60 | > 60 | – | – | CN(C)CC(=O)Nc1ccc2[nH]c(=O)cc(Oc3ccccc3)c2c1 | – | –
– | 2.09 | 0.35 | 12 | 7 | – | – | CC(C)(C)CNc1ccc(CNc2cccc(Oc3cc(=O)[nH]c4ccccc34)c2)cn1 | – | –
– | 1.93 | 0.51 | 15 | 9 | – | – | COc1cnc(OC)c(CNc2cccc(Oc3cc(=O)[nH]c4ccccc34)c2)c1 | – | –
– | > 10 | 2.38 | > 60 | 6.6 | – | – | CC(C)(C)OCNC(=O)c1cccc(-c2cccc(Oc3cc(=O)[nH]c4ccccc34)c2)c1 | – | –
– | > 10 | 0.14 | 10 | 2.2 | – | – | O=c1cc(Oc2cccc(-c3cnn(CCN4CCOCC4)c3)c2)c2ccccc2[nH]1 | – | –
– | 12 | 0.14 | 8 | 4 | – | – | CN(C)C/C=C/C(=O)Nc1cccc(-c2cccc(Oc3cc(=O)[nH]c4ccccc34)c2)c1 | – | –
– | 3.29 | 1.75 | 16.6 | 2.15 | – | – | O=c1cc(Oc2ccc(-c3cccnc3)cc2)c2ccccc2[nH]1 | – | –
– | 6.54 | > 20 | 60 | 18 | – | – | Nc1ccc(-c2ccc3[nH]c(=O)cc(Oc4ccccc4)c3c2)cc1 | – | –
– | 1.96 | 0.42 | 20 | 13 | – | – | CN(Cc1cccnc1)c1cccc(Oc2cc(=O)[nH]c3ccccc23)c1 [drawing 372] | – | –
– | 2.57 | > 20 | > 60 | > 60 | – | – | Nc1ccc2[nH]c(=O)cc(Oc3ccccc3)c2c1 | – | –
– | 6.96 | 7.3 | 4.5 | > 60 | – | – | O=c1cc(Oc2ccccc2)c2cc(-c3ccoc3)ccc2[nH]1 | – | –

melting point | IC50 (PI3Kα) [µM] | IC50 (human TOR (FLAG-TOR)) [µM] | IC50 ([2]; Homo sapiens, 72 h) [µM] | IC50 ([3]; Homo sapiens, LNCaP, 72 h) [µM] | IC50 [2] [µM] | IC50 [3] [µM] | SMILES | activity in human tumor xenograft models ([1]; I.P. dosing in mice, U87MG, PC3, MDA-MB-468, MDA-MB-435, HCT 116, SKOV3, IGROV-1) | activity in human tumor xenograft models ([1]; prostrate (PC-3) and glioblastoma (U-87))
> 360 °C | – | – | – | – | – | – | O=c1cc(Oc2ccccn2)c2ccccc2[nH]1 [Example 137, 4-(pyridin-2-yloxy)quinolin-2(1H)-one] | – | –
– | 4.11 | 2.2 | 50 | > 60 | – | – | O=c1cc(Oc2ccc(Br)cc2)c2ccccc2[nH]1 | – | –
– | 5.62 | 0.33 | 24 | 9 | – | – | O=c1cc(Oc2cccc(NCc3ccccc3N3CCOCC3)c2)c2ccccc2[nH]1 | – | –
– | 2.09 | 7.6 | 48 | 5.5 | – | – | N#Cc1ccc(Oc2cc(=O)[nH]c3ccccc23)cc1 | – | –
– | > 10 | 1.16 | > 60 | > 60 | – | – | O=c1cc(Oc2cccnc2)c2ccccc2[nH]1 [drawing 388] | – | –
– | > 10 | 7 | 40 | 17 | – | – | CN1CCN(c2ccc(Oc3cc(=O)[nH]c4ccccc34)cc2)CC1 | – | –
– | 7.44 | 8.5 | > 60 | > 60 | – | – | O=c1cc(Oc2ccccc2)c2cc(-c3cccnc3)ccc2[nH]1 | – | –
– | > 10 | 0.15 | 31 | 6.4 | – | – | O=c1cc(Oc2cccc(NC3CCN(Cc4ccncc4)CC3)c2)c2ccccc2[nH]1 | – | –
– | 1.66 | 1.85 | > 60 | 13 | – | – | CC(=O)c1ccc(Oc2cc(=O)[nH]c3ccccc23)cc1 | – | –
– | > 10 | 1.04 | > 60 | 5.5 | – | – | O=c1cc(Oc2ccc(OC(F)F)cc2)c2ccccc2[nH]1 | – | –
– | 4.05 | 0.04 | 2.8 | 1.3 | – | – | CC(C)(C)C(=O)Nc1ncccc1CNc1cccc(Oc2cc(=O)[nH]c3ccccc23)c1 | – | –
– | > 10 | 0.78 | 60 | 45 | – | – | O=c1cc(Oc2ccc(C3N=CCN3)cc2)c2ccccc2[nH]1 (centres unmarked) | – | –
– | > 10 | 0.32 | 12 | 6 | – | – | CN1CCC(Nc2cccc(Oc3cc(=O)[nH]c4ccccc34)c2)CC1 | – | –
– | > 10 | 0.18 | 4.5 | 3.05 | – | – | O=c1cc(Oc2cccc(-c3ccc(NCCN4CCCC4)cc3)c2)c2ccccc2[nH]1 | – | –
– | > 10 | 0.5 | 10 | 4.3 | – | – | CN(C)CCCNC(=O)c1cccc(-c2cccc(Oc3cc(=O)[nH]c4ccccc34)c2)c1 | – | –
– | > 10 | 0.15 | – | – | 10 | 4.2 | O=c1cc(Oc2cccc(NCc3cccnc3Cl)c2)c2ccccc2[nH]1 [drawing 217] | – | –
– | 2.17 | > 20 | 60 | 60 | – | – | O=c1cc(Oc2ccc(-c3cn[nH]c3)cc2)c2ccccc2[nH]1 | – | –
– | 3.49 | 0.15 | 12 | 5.8 | – | – | O=c1cc(Oc2cccc(NCc3ccccn3)c2)c2ccccc2[nH]1 | – | –
– | > 10 | 3.7 | 18 | > 60 | – | – | CC(C)(C)OC(=O)N1CCN(c2ccc(-c3cccc(Oc4cc(=O)[nH]c5ccccc45)c3)cn2)CC1 | – | –
– | > 10 | 0.06 | 60 | > 60 | – | – | O=c1cc(Oc2cccc(NCc3cnc4ccccc4c3)c2)c2ccccc2[nH]1 | – | –
– | 4.63 | > 20 | > 60 | > 60 | – | – | Cn1cc(-c2ccc3c(Oc4ccccc4)cc(=O)[nH]c3c2)cn1 | – | –
– | 5.13 | 0.23 | 8.5 | 4.1 | – | – | CC(C)(C)OC(=O)NC1(CNc2cccc(Oc3cc(=O)[nH]c4ccccc34)c2)CCCC1 | – | –
– | > 10 | > 20 | > 60 | > 60 | – | – | O=c1cc(Oc2ccc(OC(F)(F)F)cc2)c2ccccc2[nH]1 | – | –
– | 4.55 | 0.16 | > 60 | > 60 | – | – | CN(C)c1ccc(CNc2cccc(Oc3cc(=O)[nH]c4ccccc34)c2)cn1 | – | –
– | 8 | 0.05 | 5 | 2.8 | – | – | CN1CCC(Nc2ccc(-c3cccc(Oc4cc(=O)[nH]c5ccccc45)c3)cc2)CC1 | – | –

Reference: patent publication US20100068204A1, “4-ARYLOXYQUINOLIN-2(1H)-ONES AS MTOR KINASE AND PI3 KINASE INHIBITORS, FOR USE AS ANTI-CANCER AGENTS” (Wyeth, priority 2008, published 2010)
